Data as given in patent publication US6437138B1, “3-pyridyloxymethyl heterocyclic ether compounds useful in controlling chemical synaptic transmission” (priority 1996, dated 2002).
Where a name gives a salt, the structure may show the parent alone.

Experiments:
[1] = target: neuronal nicotinic cholinergic channel receptors (Rattus norvegicus, UniProt P09483+P12390); conditions: displacement of [3H]-cytisine (1.25 nM), whole rat brain membranes; Ki from IC50 by Cheng and Prusoff correction; read-out: Binding Ki
Procedure: A. Protocol For Determination of Nicotinic Cholinergic Channel Receptor Binding Potencies of Ligands
Binding of [^3H]-cytisine ([^3H]-CYT) to nicotinic receptors was accomplished using crude synaptic membrane preparations from whole rat brain (Pabreza et al., Molecular Pharmacol, 1990, 39:9). Washed membranes were stored at −80° C. prior to use. Frozen aliquots were slowly thawed and resuspended in 20 volumes of buffer (containing: 120 mM NaCl, 5 mM KCl, 2 mM MgCl2, 2 mM CaCl2 and 50 mM Tris-Cl, pH 7.4 @ 4° C.). After centrifuging at 20,000×g for 15 minutes, the pellets were resuspended in 30 volumes of buffer. Homogenate (containing 125-150 μg protein) was added to triplicate tubes containing concentrations of test compound and [^3H]-CYT (1.25 nM) in a final volume of 500 μL. Samples were incubated for 60 minutes at 4° C., then rapidly filtered through Whatman GF/B filters presoaked in 0.5% polyethyleneimine using 3×4 mL of ice-cold buffer. The filters are counted in 4 mL of Ecolume® (ICN). Nonspecific binding was determined in the presence of […] (−)-nicotine and values were expressed as a percentage of total binding.

[2] = target: neuronal nicotinic cholinergic channels in IMR-32 cells (Homo sapiens, UniProt P30926+P32297); assay: 86Rb+ efflux in IMR-32 cells (activation, or inhibition of efflux elicited by (S)-nicotine); assay type: cell-based; conditions: IMR-32; for inhibition at 1 µM / inhibition at 10 µM: inhibition of the efflux elicited by 100 μM (S)-nicotine; for inhibition at 1 µM: single dose 1 μM; for inhibition at 10 µM: single dose 10 μM
Method in brief: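 IMR-32 human neuroblastoma cells loaded overnight at 37° C with 86Rb+ (2 μCi/ml) in serum-free DMEM. Agonism given as EC50 and maximal response relative to 100 μM (S)-nicotine. Antagonism as inhibition of 100 μM (S)-nicotine-evoked efflux, either % at 1 or 10 μM or IC50.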

Chain of neuronal nicotinic cholinergic channel receptors (P09483 31-630): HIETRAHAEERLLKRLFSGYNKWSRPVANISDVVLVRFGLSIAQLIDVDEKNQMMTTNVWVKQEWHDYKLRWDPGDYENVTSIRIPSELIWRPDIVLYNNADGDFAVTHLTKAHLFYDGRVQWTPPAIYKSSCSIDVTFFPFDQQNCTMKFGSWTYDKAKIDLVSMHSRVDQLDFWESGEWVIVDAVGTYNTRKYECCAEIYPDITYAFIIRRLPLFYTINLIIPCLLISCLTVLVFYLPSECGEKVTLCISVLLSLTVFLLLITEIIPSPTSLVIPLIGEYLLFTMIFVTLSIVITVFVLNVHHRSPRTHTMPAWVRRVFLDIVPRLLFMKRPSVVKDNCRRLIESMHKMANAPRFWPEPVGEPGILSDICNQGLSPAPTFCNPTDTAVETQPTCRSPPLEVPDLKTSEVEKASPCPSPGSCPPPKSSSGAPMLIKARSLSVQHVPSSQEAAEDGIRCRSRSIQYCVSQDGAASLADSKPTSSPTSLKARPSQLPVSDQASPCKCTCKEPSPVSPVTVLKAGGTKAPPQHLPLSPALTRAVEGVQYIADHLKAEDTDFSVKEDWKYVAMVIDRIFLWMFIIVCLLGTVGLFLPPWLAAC
Chain of neuronal nicotinic cholinergic channel receptors (P12390 25-500): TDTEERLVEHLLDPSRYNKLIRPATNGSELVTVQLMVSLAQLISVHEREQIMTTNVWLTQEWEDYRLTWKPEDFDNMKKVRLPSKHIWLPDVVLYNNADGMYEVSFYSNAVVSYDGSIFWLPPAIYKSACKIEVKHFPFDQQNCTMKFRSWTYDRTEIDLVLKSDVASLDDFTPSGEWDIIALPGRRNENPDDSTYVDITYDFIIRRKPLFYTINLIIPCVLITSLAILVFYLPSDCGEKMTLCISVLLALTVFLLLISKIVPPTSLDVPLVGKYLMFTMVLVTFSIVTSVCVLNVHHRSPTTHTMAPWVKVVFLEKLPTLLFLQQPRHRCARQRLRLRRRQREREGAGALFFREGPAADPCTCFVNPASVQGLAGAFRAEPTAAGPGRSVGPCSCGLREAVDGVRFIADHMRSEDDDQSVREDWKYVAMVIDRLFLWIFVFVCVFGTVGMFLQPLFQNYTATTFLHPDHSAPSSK

Cc1ccc(-c2cncc(OC[C@@H]3CCCN3C)c2)cc1.Cl.Cl [Example 41, 5-(4-Methylphenyl)-3-(1-methyl-2-(S)-pyrrolidinylmethoxy)pyridine Dihydrochloride]
Ki [1]: 0.13 nM | melting point: 204 to 206 °C | inhibition at 1 µM [2]: 41% | inhibition at 10 µM [2]: 100%

CN1CCC[C@H]1COc1cncc(-c2cc3ccccc3n2C)c1.Cl [Example 36, 5-(1-Methyl-2-indolyl)-3-(1-methyl-2-(S)-pyrrolidinylmethoxy)pyridine Hydrochloride]
Ki [1]: 0.32 nM | melting point: 195 to 197 °C | inhibition at 1 µM [2]: 28%

CN1CCC[C@H]1COc1cncc(-c2ccc(Cl)cc2)c1.Cl.Cl [Example 38, 5-(4-Chlorophenyl)-3-(1-methyl-2-(S)-pyrrolidinylmethoxy)pyridine Dihydrochloride]
Ki [1]: 0.082 nM | melting point: 224 to 226 °C | inhibition at 1 µM [2]: 29% | inhibition at 10 µM [2]: 100%

CN1CCC[C@H]1COc1cncc(-c2ccc(Cl)cc2Cl)c1.Cl.Cl [Example 39, 5-(2,4-Dichlorophenyl)-3-(1-methyl-2-(S)-pyrrolidinylmethoxy)pyridine Dihydrochloride]
Ki [1]: 0.16 nM | melting point: 176 to 178 °C | inhibition at 1 µM [2]: 52%

Cl.Cl.Clc1ncc(OC[C@@H]2CCCN2)cc1-c1cccnc1 [Example 34, 5-(3-Pyridinyl)-6-chloro-3-(2-(S)-pyrrolidinylmethoxy)pyridine Dihydrochloride]
Ki [1]: 0.021 nM | melting point: 195 to 198 °C | Emax ([2]; 86Rb+ efflux, percent relative to the response elicited by 100 μM (S)-nicotine, read-out: IMR-32 maximal response): 88%

CN1CCC[C@H]1COc1cncc(-c2cccc(N)c2)c1.Cl.Cl [Example 43, 5-(3-Aminophenyl)-3-(1-methyl-2-(S)-pyrrolidinylmethoxy)pyridine Dihydrochloride]
Ki [1]: 0.43 nM | melting point: 80 to 82 °C | inhibition at 1 µM [2]: 36%

CN1CCC[C@H]1COc1cncc(C#Cc2ccccc2)c1.Cl.Cl [Example 40, 5-(2-Phenylethynyl)-3-(1-methyl-2-(S)-pyrrolidinylmethoxy)pyridine Dihydrochloride]
Ki [1]: 0.16 nM | melting point: 190 to 192 °C | inhibition at 1 µM [2]: 30% | inhibition at 10 µM [2]: 100%

CN1CCC[C@H]1COc1cncc(-c2cccc3ccccc23)c1 [Example 2, 5-(1-Naphthalenyl)-3-(1-methyl-2-(S)-pyrrolidinylmethoxy)pyridine Dihydrochloride]
Ki [1]: 4.2 nM | inhibition at 1 µM [2]: 47%

CN1CCC[C@H]1COc1cncc(-c2ccc(F)cc2)c1 [Example 11, 5-(4-Fluorophenyl)-3-(1-methyl-2-(S)-pyrrolidinylmethoxy)pyridine Dihydrochloride]
Ki [1]: 0.11 nM | inhibition at 1 µM [2]: 38%

COc1ccc(-c2cncc(OC[C@@H]3CCCN3C)c2)cc1 [Example 3, 5-(4-Methoxyphenyl)-3-(1-methyl-2-(S)-pyrrolidinylmethoxy)pyridine Dihydrochloride]
Ki [1]: 0.32 nM | inhibition at 1 µM [2]: 39%
